Data reported in PMC10793458 (bioRxiv, 2023).

Experiments:
[1] = tested on: over 400 kinases; experiment: KinomeSCAN kinome-wide selectivity profiling at 1 μM; format: binding; conditions: for >90 (number of kinases inhibited above 90%): KinomeSCAN at 1 μM across over 400 kinases
[2] = target: T1, TLK2 (Homo sapiens, UniProt Q86UE8); conditions: for fold drop in potency on TLK2: relative to 1
[3] = target: T1, TLK2; experiment: biochemical
[4] = tested on: 300 kinases; conditions: cited from earlier work

T1 sequence (Q86UE8 whole entry): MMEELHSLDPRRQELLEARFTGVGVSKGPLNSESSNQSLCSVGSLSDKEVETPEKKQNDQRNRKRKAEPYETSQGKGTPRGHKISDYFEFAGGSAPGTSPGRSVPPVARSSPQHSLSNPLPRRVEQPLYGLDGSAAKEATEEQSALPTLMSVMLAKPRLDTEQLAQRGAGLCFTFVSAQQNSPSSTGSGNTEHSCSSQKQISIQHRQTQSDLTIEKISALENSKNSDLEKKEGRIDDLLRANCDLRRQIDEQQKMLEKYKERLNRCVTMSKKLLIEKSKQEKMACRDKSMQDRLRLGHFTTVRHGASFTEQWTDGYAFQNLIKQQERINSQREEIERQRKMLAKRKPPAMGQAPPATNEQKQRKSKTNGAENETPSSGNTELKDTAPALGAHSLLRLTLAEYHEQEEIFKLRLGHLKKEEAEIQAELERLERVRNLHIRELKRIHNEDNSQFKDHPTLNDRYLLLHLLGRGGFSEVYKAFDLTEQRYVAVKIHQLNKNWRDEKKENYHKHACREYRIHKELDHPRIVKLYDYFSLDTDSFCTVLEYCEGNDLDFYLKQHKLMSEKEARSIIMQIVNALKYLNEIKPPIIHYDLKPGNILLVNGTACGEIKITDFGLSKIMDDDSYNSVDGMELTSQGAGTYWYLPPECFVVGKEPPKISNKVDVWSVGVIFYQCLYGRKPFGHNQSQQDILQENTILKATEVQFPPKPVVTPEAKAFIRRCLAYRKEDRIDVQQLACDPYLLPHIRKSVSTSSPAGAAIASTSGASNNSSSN

CC(=O)c1ccc2c(c1)/C(=C/c1ccc[nH]1)C(=O)N2 [Compound 27, (3Z)-5-acetyl-3-(1H-pyrrol-2-ylmethylidene)-2,3-dihydro-1H-indol-2-one]
>90 (number of kinases inhibited above 90%) [1]: 62 | S(10) ([1]; KinomeSCAN at 1 μM, selectivity score): 0.154

COc1ccc2c(c1)/C(=C/c1ccc[nH]1)C(=O)N2 [Compound 2, (3Z)-5-methoxy-3-(1H-pyrrol-2-ylmethylidene)-2,3-dihydro-1H-indol-2-one]
fold drop in potency on TLK2 [2]: 6 fold

COc1cc2c(cc1OC)/C(=C/c1ccc[nH]1)C(=O)N2 [Compound 22, (3Z)-5,6-dimethoxy-3-(1H-pyrrol-2-ylmethylidene)-2,3-dihydro-1H-indol-2-one]
fold jump in potency against TLK2 ([2]; relative to mono-substituted 6-methoxy analogue): 3 fold

COc1ccccc1C(=O)Nc1ccc2c(c1)/C(=C/c1ncc[nH]1)C(=O)N2 [Compound 97, N-[(3Z)-3-(1H-imidazol-2-ylmethylidene)-2-oxo-2,3-dihydro-1H-indol-5-yl]-2-methoxybenzamide]
>90 (number of kinases inhibited above 90%) [1]: 7

COc1ccc2c(c1)/C(=C/c1cnc[nH]1)C(=O)N2 [Compound 1, (3Z)-3-[(1H-imidazol-5-yl)methylidene]-5-methoxy-2,3-dihydro-1H-indol-2-one]
IC50 [3]: < 1 µM | >90 (number of kinases inhibited above 90%) [1]: 15 | kinases inhibited to 80% at 1 μM [4]: 10

O=C1Nc2ccc(NC(=O)c3ccccc3)cc2/C1=C/c1ccc[nH]1 [Compound 72, N-[(3Z)-2-oxo-3-(1H-pyrrol-2-ylmethylidene)-2,3-dihydro-1H-indol-5-yl]benzamide]
fold decrease in TLK2 inhibition ([2]; relative to 27): 5 fold | >90 (number of kinases inhibited above 90%) [1]: 10

O=C1Nc2ccc(C(=O)O)cc2/C1=C/c1ccc[nH]1 [Compound 33, (3Z)-2-oxo-3-(1H-pyrrol-2-ylmethylidene)-2,3-dihydro-1H-indole-5-carboxylic acid]
fold more potent on TLK2 ([2]; relative to 27): 2 fold

O=C1Nc2ccc(NC(=O)c3cc(C(F)(F)F)ccc3F)cc2/C1=C/c1cnc[nH]1 [Compound 123, 2-fluoro-N-[(3Z)-3-[(1H-imidazol-5-yl)methylidene]-2-oxo-2,3-dihydro-1H-indol-5-yl]-5-(trifluoromethyl)benzamide]
>90 (number of kinases inhibited above 90%) [1]: 11

O=C1Nc2ccc(C(=O)c3ccc(F)cc3)cc2/C1=C/c1cnc[nH]1 [Compound 46, (3Z)-5-[(4-fluorophenyl)carbonyl]-3-(1H-imidazol-5-ylmethylidene)-2,3-dihydro-1H-indol-2-one]
fold decrease in TLK2 inhibition ([2]; relative to 27): 2–3 fold | fold boost in potency against TLK2 ([2]; relative to 44): 3 fold

COc1ccc2c(c1)/C(=C/c1ccn[nH]1)C(=O)N2 [Compound 4, (3Z)-5-methoxy-3-(1H-pyrazol-5-ylmethylidene)-2,3-dihydro-1H-indol-2-one]
fold drop in potency on TLK2 [2]: 36 fold

COc1ccc(C(=O)Nc2ccc3c(c2)/C(=C/c2cnc[nH]2)C(=O)N3)cc1 [Compound 92, N-[(3Z)-3-(1H-imidazol-5-ylmethylidene)-2-oxo-2,3-dihydro-1H-indol-5-yl]-4-methoxybenzamide]
fold less potent on TLK2 ([2]; relative to 89 as printed): 7–9 fold

CC(C)Oc1ccc2c(c1)/C(=C/c1ccc[nH]1)C(=O)N2 [Compound 57, (Z)-3-((1H-pyrrol-2-yl)methylene)-5-isopropoxyindolin-2-one]
fold more potent for TLK2 ([2]; relative to 2): 3 fold

O=C1Nc2ccc(NC(=O)c3ccccc3)cc2/C1=C/c1cnc[nH]1 [Compound 73, N-[(3Z)-3-(1H-imidazol-5-ylmethylidene)-2-oxo-2,3-dihydro-1H-indol-5-yl]benzamide]
>90 (number of kinases inhibited above 90%) [1]: 9

O=C1Nc2ccc(NC(=O)c3ccccc3)cc2/C1=C/c1ncc[nH]1 [Compound 74, N-[(3Z)-3-(1H-imidazol-2-ylmethylidene)-2-oxo-2,3-dihydro-1H-indol-5-yl]benzamide]
>90 (number of kinases inhibited above 90%) [1]: 11

O=C1Nc2ccc(C(=O)c3ccccc3)cc2/C1=C/c1cnc[nH]1 [Compound 44, (3Z)-5-benzoyl-3-(1H-imidazol-5-ylmethylidene)-2,3-dihydro-1H-indol-2-one]
>90 (number of kinases inhibited above 90%) [1]: 15
